Source: patent US20260216134A1, “CHARGED PI-CONJUGATED MOLECULES FOR THE TREATMENT OF MICROBIAL INFECTIONS” (priority 2023, published 2026)
Like-named read-outs stand apart in the source and are kept apart here.

Key:
[1] = system: S. aureus; assay: Time-kill of combinations at 0.5×MIC; format: cell-based, Staphylococcus aureus; conditions: 0.5×MIC of individual agent, after 12 h of treatment
[2] = system: A375 cancer cells (melanoma); assay: Crystal violet cytotoxicity test in A375 cells without light activation; format: cell-based, human
Experimental: (§1) The inhibitory concentration of charged pi-conjugated compounds needed to inhibit the cell growth by 50% (toxicity IC50).
(§2) Most of the charged pi-conjugated compounds are aminocyanines which are functionalized with alkyl amine group. The charged pi-conjugated compounds were added to cell cultures of A375 cancer cells (human melanoma) and their cytotoxicity was quantified by the crystal violet test and/or clonogenic assays for cell viability. […] The longer the exposure the most cytotoxic the charged pi-conjugated compounds are towards A375 cells. […] The same behavior is observed: the longer the exposure, the more cytotoxic. All molecules presented here are aminocyanines except GL-261-2 which is a carboxyl-cyanine. […] This was the first time a therapeutic window of concentration that can be tuned to selectively kill cancer and/or protect cells was suspected. In finding this therapeutic window concentration and time of exposure are important variables that should be fine tuned.
(§3) Based on the finding described above, a larger set of charged pi-conjugated compounds was evaluated for cytotoxicity against A375 cancer cells as shown in FIG. 25 and FIG. 26.
(§4) The IC50 is the concentration needed to inhibit the cell viability by 50%. These molecules in FIG. 25 and FIG. 26 were evaluated by crystal violet assay and using 2 days of exposure.

[3] = as above; format: cell-based, human; conditions: human
Experimental: as §1, §2, §3, §4

[4] = Clonogenic assay cytotoxicity in A375 cells without light; format: cell-based, human; conditions: human
Experimental: (§5) FIGS. 28A-28B provide a summary of the evidence of the cytotoxicity of charged pi-conjugated compounds without light. Toxicity was measured using clonogenic assay with 7 hours of incubation (contact time between molecules and A375 cells) and 7 days for colony formation. (FIG. 28A) The lethal concentration of the cyanine molecules to kill 50% of the A375 cells (Tox LC50) without light activation. (FIG. 28B) Chemical structure of exemplary charged pi-conjugated compounds. On average, 300 cells equal to 300 colonies were seeded and analyzed for each data point.
(§6) Both properties were measured using clonogenic assay with 7 hours of incubation (contact time between molecules and A375 cells) and 7 days for colony formation. 300 cells were seeded and analyzed for each data point.
(§7) More cytotoxicity tests were conducted in some additional molecules and using clonogenic assay for cell viability (FIG. 28). A375 cells were exposed to charged pi-conjugated compounds for 7 hours, in contrast to the previously presented assays which were conducted with crystal violet assay and 2 days of exposure. The data points showing the cytotoxicity quantification for each individual molecule are presented in FIG. 29, with resulting IC50 values summarized in Table 4.

[5] = system: A375 cancer cells (melanoma); assay: as above; format: cell-based, human
Experimental: as §5, §6, §7

[6] = system: Gram-positive strains; assay: MIC / MIC50 by broth microdilution in panel of Gram-positive strains; format: cell-based; conditions: MIC50 over all Gram-positive strains tested (Table 2)
Experimental: Antibacterial activity was assessed by determining the minimal inhibitory concentration (MIC) and the minimal bactericidal concentrations (MBC) and by monitoring time-dependent bacterial killing of exponentially growing cells. Bacterial cell suspensions (OD600≈0.02 in cation-adjusted Muller-Hinton Broth) were treated with increasing concentrations of the different molecules. The minimal inhibitory concentration (MIC) was defined as the minimal concentration of the molecule resulting in complete bacterial growth arrest. The minimal bactericidal concentration (MBC) was defined as the lowest concentration of the molecule that killed 99.9% of the inoculum. A molecule was determined to be bactericidal if the ratio of the MBC to the MIC was less than 4 to 6. […] In M. smegmatis, the antibacterial activity of charged pi-conjugated compounds was generally lower.
The MIC values for all Gram-positive strains tested (Table 2) were used to calculate the MIC50, i.e., the minimum inhibitory concentration needed to inhibit the growth of 50% of the tested isolates (FIG. 5A). […] When the average MIC50 values were evaluated, the most susceptible bacterial genera were Streptococcus sp., followed by Staphylococcus sp. In contrast, Propionibacterium sp. had the highest average MIC50 (FIG. 5B).
The broth microdilution method was used to determine the MIC of charged pi-conjugated compounds according to the CLSI guidelines. Charged pi-conjugated compound stock solutions (16 mM) were prepared in dimethyl sulfoxide (DMSO). Serial twofold dilutions of the charged pi-conjugated compounds were freshly prepared using the appropriate liquid media (Table 2), and 100 μL of each dilution was added to the appropriate wells of 96-well microtiter plates. The bacterial inoculum was further diluted in liquid media, and 100 μL was added to each well, resulting in a final cell density of ≈5×10^5 CFU mL^−1. […] A molecule was determined to be bactericidal if the ratio of the MBC to the MIC was less than 4 to 6. […]

[7] = crystal violet assay, 2 days of exposure, without light activation, read-out: IC50 (μM), cytotoxicity to A375 cancer cells
[8] = clonogenic assay, 7 hours of exposure, 7 days colony formation, without light, read-out: IC50 (μM), cytotoxicity to A375 cancer cells

gramicidin
maximum reduction in bacterial population size [1]: ≈ 3 log10

C[N+]1=C(C=CC=CC=C2N(CCCCCC(=O)NCCCCCCN)c3ccccc3C2(C)C)C(C)(C)c2ccccc21 [Cy5-amine]
IC50 [2]: 8 µM

CN(C)CC[N+]1=C(/C=C/C2=CC(=C/C=C3/N(C)c4ccc5ccccc5c4C3(C)C)/CC(C(C)(C)C)C2)C(C)(C)c2c1ccc1ccccc21 (stereo not shown) [GL-349-2]
IC50 at 2 days [3]: 0.3 µM

CN1/C(=C/C=C2C=C(/C=C/C3=[N+](CCCCCC(=O)O)c4ccc5ccccc5c4C3(C)C)CCC/2)C(C)(C)c2c1ccc1ccccc21 [BL-242, 3-(5-carboxypentyl)-1,1-dimethyl-2-((E)-2-((E)-3-((E)-2-(1,1,3-trimethyl-1,3-dihydro-2H-benzo[e]indol-2-ylidene)ethylidene)cyclohex-1-en-1-yl)vinyl)-1H-benzo[e]indol-3-ium]
IC50 at 7 h [4]: 2 µM

C[N+]1=C(/C=C/C2=CC(=C/C=C3/N(CCCCCC(=O)NCCCCCCN)c4ccccc4C3(C)C)/CCC2)C(C)(C)c2ccccc21 [Cy7-amine]
IC50 [2]: 2 µM | IC50 [5]: 0.75 µM

CN1/C(=C/C=C/C=C/C=C/C2=[N+](CCCCCC(=O)O)c3ccc4ccccc4c3C2(C)C)C(C)(C)c2c1ccc1ccccc21 [GL-261-2]
cytotoxicity at short exposure ([2]; A375, exposure ~30-50 min): safe and showed low cytotoxicity | effect toward A375 cells at short exposure ([2]; ~50 min exposure, 1-4 μM): protective effect | IC50 at 2 days [3, 7]: 2 µM | IC50 at 7 h [4, 8]: 5 µM

CN(C)CC[N+]1=C(/C=C/C=C/C=C/C=C2/N(C)c3ccc4ccccc4c3C2(C)C)C(C)(C)c2c1ccc1ccccc21 [GL-308-2]
IC50 at 2 days [3]: 0.5 µM

CN1/C(=C/C=C/C=C/C=C/C2=[N+](CCCCCCN)c3ccc4ccccc4c3C2(C)C)C(C)(C)c2c1ccc1ccccc21 [GL-286]
cell viability at short incubation and low concentration ([2]; 1 day incubation, concentrations below 1 μM): can increase the cell viability | cytotoxicity at long exposure ([2]; A375, 1 day vs 2 days exposure): showed cytotoxicity | IC50 at 2 days [3, 7]: 2.88 µM | IC50 at 7 h [4, 8]: 1 µM

CN1/C(=C/C=C2C=C(/C=C/C3=[N+](C)c4ccc5ccccc5c4C3(C)C)CCC/2)C(C)(C)c2c1ccc1ccccc21 [BL-141-1, 1,1,3-trimethyl-2-((E)-2-((E)-3-((E)-2-(1,1,3-trimethyl-1,3-dihydro-2H-benzo[e]indol-2-ylidene)ethylidene)cyclohex-1-en-1-yl)vinyl)-1H-benzo[e]indol-3-ium]
IC50 [2, 7]: 0.125 µM | IC50 [5, 8]: 0.14 µM

CCCCCCCCCC(=O)N[C@@H](Cc1c[nH]c2ccccc12)C(=O)N[C@H](CC(N)=O)C(=O)N[C@@H](CC(=O)O)C(=O)N[C@@H]1C(=O)NCC(=O)N[C@@H](CCCN)C(=O)N[C@@H](CC(=O)O)C(=O)N[C@H](C)C(=O)N[C@@H](CC(=O)O)C(=O)NCC(=O)N[C@H](CO)C(=O)N[C@@H]([C@H](C)CC(=O)O)C(=O)N[C@@H](CC(=O)c2ccccc2N)C(=O)O[C@@H]1C [daptomycin]
maximum reduction in bacterial population size [1]: ≈ 3 log10

CN(C)CCCCCC[N+]1=C(/C=C/C=C/C=C/C=C2/N(C)c3ccc4ccccc4c3C2(C)C)C(C)(C)c2c1ccc1ccccc21 [GL-291-2]
cytotoxicity at long exposure [2]: showed cytotoxicity | IC50 at 2 days [3]: 1.5 µM

COC(=O)C(/C=C/C=C1/N(C)c2ccc3ccccc3c2C1(C)C)=C(C)\C=C\C1=[N+](CCCCCCN(C)C)c2ccc3ccccc3c2C1(C)C [GL-297-2]
IC50 at 2 days [3]: 1 µM | IC50 at 7 h [4]: 0.45 µM

CN1/C(=C/C=C/C=C/C=C/C2=[N+](C)c3ccc4ccccc4c3C2(C)C)C(C)(C)c2c1ccc1ccccc21 [GL-176]
IC50 [2]: 0.25 µM

CN1/C(=C/C=C/C=C/C=C/C2=[N+](CCCCCC[N+](C)(C)C)c3ccc4ccccc4c3C2(C)C)C(C)(C)c2c1ccc1ccccc21 [GL-328-2]
IC50 at 2 days [3]: 7 µM

C[N+]1=C(/C=C/C=C/C=C2/N(CCCCCC(=O)NCCCCCCN)c3ccc4ccccc4c3C2(C)C)C(C)(C)c2c1ccc1ccccc21.Cl.[Cl-] [Cy5.5-amine]
IC50 [2]: 2 µM | cytotoxicity at short exposure [2]: safe and showed low cytotoxicity | antibacterial activity according to MIC50 [6]: strongest antibacterial activity

CN(C)CCCCCCN1/C(=C/C=C2C=C(/C=C/C3=[N+](CCCCCCN(C)C)c4ccc5ccccc5c4C3(C)C)CCC/2)C(C)(C)c2c1ccc1ccccc21.[Br-] [BL-142, 3-(6-(dimethylamino)hexyl)-2-((E)-2-((E)-3-((E)-2-(3-(6-(dimethylamino)hexyl)-1,1-dimethyl-1,3-dihydro-2H-benzo[e]indol-2-ylidene)ethylidene)cyclohex-1-en-1-yl)vinyl)-1,1-dimethyl-1H-benzo[e]indol-3-ium]
cytotoxicity at long exposure [2]: showed cytotoxicity | IC50 at 2 days [3]: 2.5 µM

COC(=O)CCCCCN1/C(=C/C=C2C=C(/C=C/C3=[N+](CCCCCC(=O)OC)c4ccc5ccccc5c4C3(C)C)CCC/2)C(C)(C)c2c1ccc1ccccc21 [BL-246-1, 3-(6-methoxy-6-oxohexyl)-2-((E)-2-((E)-3-((E)-2-(3-(6-methoxy-6-oxohexyl)-1,1-dimethyl-1,3-dihydro-2H-benzo[e]indol-2-ylidene)ethylidene)cyclohex-1-en-1-yl)vinyl)-1,1-dimethyl-1H-benzo[e]indol-3-ium]
IC50 at 7 h [4]: 0.6 µM

CC(=O)NCCCCCC[N+]1=C(/C=C/C=C/C=C/C=C2/N(C)c3ccc4ccccc4c3C2(C)C)C(C)(C)c2c1ccc1ccccc21 [GL-362-2]
IC50 at 7 h [4]: 0.19 µM
